Measured values from patent US20210045385A1, “PYRIDAZINONE-SUBSTITUTED KETOXIMES AS HERBICIDES” (FMC Corporation, priority 2018, published 2021).

Columns and labels:
Assay type in all cases: in vivo
[1] = system: barnyardgrass (Echinochloa crus-galli); assay: Test D flooded paddy test, visual plant response rating; conditions: 250 g ai/ha, scale 0 to 100 (0 no effect, 100 complete control), 13 to 15 d
Outline: (§1)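 Greenhouse paddy assay scored on a 0–100 visual scale after 13 to 15 d, where 100 means complete control and a dash marks no result; dosing was into 3 cm floodwater over 2-leaf plants.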

[2] = system: sedge umbrella (small-flower umbrella sedge, Cyperus difformis); assay: as above; conditions: 250 g ai/ha, scale 0 to 100 (0 no effect, 100 complete control), 13 to 15 d
Outline: as §1

[3] = system: rice (Oryza sativa); assay: as above; conditions: 250 g ai/ha, scale 0 to 100 (0 no effect, 100 complete control), 13 to 15 d
Outline: as §1

[4] = system: duck salad (Heteranthera limosa); assay: as above; conditions: 250 g ai/ha, scale 0 to 100 (0 no effect, 100 complete control), 13 to 15 d
Outline: as §1

[5] = system: kochia (Bassia scoparia); assay: Test C preemergence, visual plant response rating; conditions: 1000 g ai/ha
Outline: (§2)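 Seeds sown in a loam–sand blend got a directed preemergence soil spray; postemergence plants (2–10 cm, one- to two-leaf stage) were sprayed with compound in a non-phytotoxic solvent plus surfactant. Injury was scored visually against untreated controls after about 10 d in a greenhouse on a 0–100 scale (100 = complete control).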

[6] = system: barnyardgrass (Echinochloa crus-galli); assay: Test C preemergence, visual plant response rating; conditions: 1000 g ai/ha
Outline: as §2

[7] = system: Italian ryegrass (Lolium mutiflorum); assay: Test C preemergence, visual plant response rating; conditions: 1000 g ai/ha
Outline: as §2

[8] = system: pigweed (Amaranthus retroflexus); assay: Test C preemergence, visual plant response rating; conditions: 1000 g ai/ha
Outline: as §2

[9] = system: foxtail, giant (giant foxtail, Setaria faberi); assay: Test C preemergence, visual plant response rating; conditions: 1000 g ai/ha
Outline: as §2

[10] = system: ragweed (common ragweed, Ambrosia artemisiifolia); assay: Test C preemergence, visual plant response rating; conditions: 1000 g ai/ha
Outline: as §2

[11] = system: kochia (Bassia scoparia); assay: Test C postemergence, visual plant response rating; conditions: Test C, postemergence, 1000 g ai/ha
Outline: as §2

[12] = system: galium (catchweed bedstraw, Galium aparine); assay: Test C postemergence, visual plant response rating; conditions: Test C, postemergence, 1000 g ai/ha
Outline: as §2

[13] = system: barnyardgrass (Echinochloa crus-galli); assay: Test C postemergence, visual plant response rating; conditions: Test C, postemergence, 1000 g ai/ha
Outline: as §2

[14] = system: wheat (Triticum aestivum); assay: Test C postemergence, visual plant response rating; conditions: Test C, postemergence, 1000 g ai/ha
Outline: as §2

[15] = system: blackgrass (Alopecurus myosuroides); assay: Test C postemergence, visual plant response rating; conditions: Test C, postemergence, 1000 g ai/ha
Outline: as §2

[16] = system: Italian ryegrass (Lolium mutiflorum); assay: Test C postemergence, visual plant response rating; conditions: Test C, postemergence, 1000 g ai/ha
Outline: as §2

[17] = system: pigweed (Amaranthus retroflexus); assay: Test C postemergence, visual plant response rating; conditions: Test C, postemergence, 1000 g ai/ha
Outline: as §2

[18] = system: foxtail, giant (giant foxtail, Setaria faberi); assay: Test C postemergence, visual plant response rating; conditions: Test C, postemergence, 1000 g ai/ha
Outline: as §2

[19] = system: corn (Zea mays); assay: Test C postemergence, visual plant response rating; conditions: Test C, postemergence, 1000 g ai/ha
Outline: as §2

[20] = system: ragweed (common ragweed, Ambrosia artemisiifolia); assay: Test C postemergence, visual plant response rating; conditions: Test C, postemergence, 1000 g ai/ha
Outline: as §2

Row | Compound | Plant response rating, Barnyardgrass (Flood) [1] | Plant response rating, Sedge, Umbrella (Flood) [2] | Plant response rating, Rice (Flood) [3] | Plant response rating, Ducksalad (Flood) [4] | Kochia plant response rating (0 to 100 scale) [5] | Barnyardgrass plant response rating (0 to 100 scale) [6] | Ryegrass, Italian plant response rating (0 to 100 scale) [7] | Pigweed plant response rating (0 to 100 scale) [8] | Foxtail, Giant plant response rating (0 to 100 scale) [9] | Ragweed plant response rating (0 to 100 scale) [10] | Kochia plant response rating (0 to 100 scale) [11] | Galium plant response rating (0 to 100 scale) [12] | Barnyardgrass plant response rating (0 to 100 scale) [13] | Wheat plant response rating (0 to 100 scale) [14] | Blackgrass plant response rating (0 to 100 scale) [15] | Ryegrass, Italian plant response rating (0 to 100 scale) [16] | Pigweed plant response rating (0 to 100 scale) [17] | Foxtail, Giant plant response rating (0 to 100 scale) [18] | Corn plant response rating (0 to 100 scale) [19] | Ragweed plant response rating (0 to 100 scale) [20]
1 | C#CCO/N=C(/c1c(O)cnn(C)c1=O)c1cccc2ccccc12 [Compound 221] | 0 | 0 | 0 | 0 | 60 | 30 | 100 | 100 | 100 | 80 | 70 | 100 | 70 | 60 | 90 | 100 | 90 | 60 | 20 | 80
2 | CC(C)O/N=C(\c1c(O)cnn(C)c1=O)c1cccc2ccccc12 [Compound 222] | 0 | 0 | 0 | 0 | 0 | 0 | 0 | 100 | 50 | 50 | 0 | 90 | 10 | 0 | 0 | 0 | 90 | 20 | 0 | 50
